{
  "source": "patent US20060122181A1",
  "about": "“Heteroaromatic pentacyclic compound and medicinal use thereof” (Japan Tobacco Inc., priority 2003, published 2006)",
  "key": {"[1]": {"test_system": "male SD rats", "assay": "Effect of concomitant use with insulin on hypoglycemic activity", "format": "in vivo", "conditions": "1 hour after vs before insulin", "description": "For drawing blood, the animals were fasted after insulin administration. The blood thus taken was centrifuged and the glucose level was measured from the obtained plasma by the hexokinase method (glucose measurement kit). For evaluation, the percentage (%) of decrease in the glucose level of the test compound and insulin concomitant use group and insulin administration group one hour later relative to before insulin administration is shown."}, "[2]": {"test_system": "female ob/ob mice", "assay": "Effect of concomitant use with glibenclamide on hypoglycemic activity", "format": "in vivo", "conditions": "relative to control", "description": "(§1) To 10-week-old female ob/ob mice grouped according to glucose level were orally administered a 0.5% methyl cellulose suspension of the test compound {note: Example 4-2 (1 mg/kg)} (test compound-administered group), a 0.5% methyl cellulose suspension of glibenclamide (3 mg/kg) (glibenclamide-administered group), simultaneously both a 0.5% methyl cellulose suspension of the test compound and a 0.5% methyl cellulose suspension (glibenclamide 3 mg/kg) (test compound and glibenclamide concomitant use group), or a 0.5% methyl cellulose solution alone (control group).\nBlood was drawn under fasting condition, which condition was started simultaneously with the administration by means of removing the feed. […] The blood thus taken was centrifuged and the glucose level was measured from the obtained plasma by the hexokinase method (glucose kit). For evaluation, the percentage (%) of decrease in the glucose level of each group other than the control group relative to the control group is shown."}, "[3]": {"test_system": "female ob/ob mice", "assay": "Effect of concomitant use with metformin hydrochloride on hypoglycemic activity", "format": "in vivo", "conditions": "relative to control", "description": "as §1, with “metformin chloride (30” for “glibenclamide (3”, “(metformin-administered” for “(glibenclamide-administered”, “(metformin chloride 30” for “(glibenclamide 3”, “metformin” for “glibenclamide”, “group). The ob/ob mice were fasted for 3 hours before administration.” for “group).”\n(§2) Blood was drawn under fasting condition, which condition was started simultaneously with the administration by means of removing the feed. The blood was drawn under anesthesia from the orbital vein 3 and 5 hours after the administration. The blood thus taken was centrifuged and the glucose level was measured from the obtained plasma by the hexokinase method (glucose kit). For evaluation, the percentage (%) of decrease in the glucose level of each group other than the control group relative to the control group is shown."}, "[4]": {"test_system": "female ob/ob mice", "assay": "Effect of concomitant use with voglibose on hypoglycemic activity (sucrose loading)", "format": "in vivo", "conditions": "after sucrose loading 2 g/kg, relative to control", "description": "as §1, with “9-week-old” for “10-week-old”, “voglibose (0.3” for “glibenclamide (3”, “(voglibose-administered” for “(glibenclamide-administered”, “(voglibose 0.3” for “(glibenclamide 3”, “voglibose” for “glibenclamide”, “group). One hour later, sucrose (2 g/5 mL/kg) was loaded.” for “group).”\nas §2, with “loading” for “administration”, “1” for “3”, “2” for “5”, “sucrose loading.” for “administration.”"}, "[5]": {"test_system": "male db/db mice", "assay": "Effect of concomitant use with tolbutamide on hypoglycemic activity", "format": "in vivo", "conditions": "relative to control", "description": "as §1, with “male db/db” for “female ob/ob”, “4-5 (5” for “4-2 (1”, “tolbutamide (30” for “glibenclamide (3”, “(tolbutamide-administered” for “(glibenclamide-administered”, “(tolbutamide 30” for “(glibenclamide 3”, “tolbutamide” for “glibenclamide”\nas §2, with “vein” for “vein 3 and”, “(glucose measurement” for “(glucose”"}, "[6]": {"test_system": "male db/db mice", "assay": "Effect of concomitant use with pioglitazone hydrochloride on hypoglycemic activity", "format": "in vivo", "conditions": "relative to control; for blood glucose decreasing rate (%) Day 3: 3 hours after administration", "description": "To 8-week-old male db/db mice grouped according to full feed glucose level were orally administered a 0.5% methyl cellulose suspension of the test compound {note: Example 4-5 (10 mg/kg)} (test compound-administered group), a 0.5% methyl cellulose suspension of Pioglitazone hydrochloride (3 mg/kg) (Pioglitazone-administered group), simultaneously both a 0.5% methyl cellulose suspension of the test compound and a 0.5% methyl cellulose suspension (Pioglitazone hydrochloride 3 mg/kg) (test compound and Pioglitazone concomitant use group), or a 0.5% methyl cellulose solution alone (control group), once a day for 3 days.\nas §2, with “vein on day 1 of administration and” for “vein”, “3” for “3 and 5”, “administration on day 3.” for “administration.”"}, "[7]": {"test_system": "male db/db mice", "assay": "Effect of concomitant use with nateglinide on hypoglycemic activity", "format": "in vivo", "conditions": "relative to control", "description": "as §1, with “male db/db” for “female ob/ob”, “4-5 (5” for “4-2 (1”, “nateglinide (30” for “glibenclamide (3”, “(nateglinide-administered” for “(glibenclamide-administered”, “(nateglinide 30” for “(glibenclamide 3”, “nateglinide” for “glibenclamide”\nas §2, with “2” for “3 and 5”, “(glucose measurement” for “(glucose”"}, "[8]": {"conditions": "test compound 1 mg/kg + glibenclamide 3 mg/kg oral"}, "[9]": {"conditions": "test compound 1 mg/kg oral alone"}, "[10]": {"conditions": "test compound 1 mg/kg + metformin chloride 30 mg/kg oral, ob/ob mice"}, "[11]": {"conditions": "test compound 1 mg/kg oral alone, ob/ob mice fasted 3 hours before administration"}, "[12]": {"conditions": "test compound 1 mg/kg + voglibose 0.3 mg/kg oral"}, "[13]": {"conditions": "Pioglitazone hydrochloride 3 mg/kg oral once a day alone"}, "[14]": {"conditions": "test compound 5 mg/kg oral alone"}, "[15]": {"conditions": "test compound 10 mg/kg + Pioglitazone hydrochloride 3 mg/kg oral once a day"}, "[16]": {"conditions": "test compound 10 mg/kg oral once a day alone"}},
  "note": "Where a name gives a salt, the structure may show the parent alone.",
  "data": [
    {"smiles": "CCCC(CCC)c1ccc(CN(C)c2ccc(-c3csc(CN(CC(=O)[O-])Cc4ccccc4)n3)cc2)cc1.[Na+]", "note": "[Example 3-40]", "values": [
      {"measurement": "blood glucose decreasing rate (%) Day of start of administration", "setting": "[1]; test compound 30 mg/kg oral once a day + insulin 0.6 U/kg s.c. 3 hours later", "result": 43, "unit": "%"},
      {"measurement": "blood glucose decreasing rate (%) Day 8", "setting": "[1]; test compound 30 mg/kg oral once a day for 8 days + insulin 0.6 U/kg s.c.", "result": 36, "unit": "%"}
    ]},
    {"smiles": "CCCC(CCC)c1ccc(OCc2ccc(-c3csc(COc4cncc(C(=O)O)c4)c3)cc2)cc1", "note": "[Example 4-2, 5-(4-{4-[4-(1-Propylbutyl)phenoxymethyl]phenyl}thiophen-2-ylmethoxy)nicotinic acid]", "values": [
      {"measurement": "blood glucose decreasing rate (%) 3 hours later", "setting": "[2]; [8]", "result": 64, "unit": "%"},
      {"measurement": "blood glucose decreasing rate (%) 15 hours later", "setting": "[2]; [8]", "result": 60, "unit": "%"},
      {"measurement": "blood glucose decreasing rate (%) 3 hours later", "setting": "[2]; [9]", "result": 48, "unit": "%"},
      {"measurement": "blood glucose decreasing rate (%) 15 hours later", "setting": "[2]; [9]", "result": 20, "unit": "%"},
      {"measurement": "blood glucose decreasing rate (%) 3 hours later", "setting": "[3]; [10]", "result": 40, "unit": "%"},
      {"measurement": "blood glucose decreasing rate (%) 5 hours later", "setting": "[3]; [10]", "result": 51, "unit": "%"},
      {"measurement": "blood glucose decreasing rate (%) 3 hours later", "setting": "[3]; [11]", "result": 19, "unit": "%"},
      {"measurement": "blood glucose decreasing rate (%) 5 hours later", "setting": "[3]; [11]", "result": 20, "unit": "%"},
      {"measurement": "blood glucose decreasing rate (%) 1 hour later", "setting": "[4]; [12]", "result": 49, "unit": "%"},
      {"measurement": "blood glucose decreasing rate (%) 2 hours later", "setting": "[4]; [12]", "result": 54, "unit": "%"},
      {"measurement": "blood glucose decreasing rate (%) 1 hour later", "setting": "[4]; [9]", "result": 32, "unit": "%"},
      {"measurement": "blood glucose decreasing rate (%) 2 hours later", "setting": "[4]; [9]", "result": 40, "unit": "%"}
    ]},
    {"smiles": "CCCCNC(=O)NS(=O)(=O)c1ccc(C)cc1", "note": "[Tolbutamide, tolbutamide, reference compound]", "values": [
      {"measurement": "blood glucose decreasing rate (%) 5 hours later", "setting": "[5]; tolbutamide 30 mg/kg oral alone", "result": 26, "unit": "%"}
    ]},
    {"smiles": "CCc1ccc(CCOc2ccc(CC3SC(=O)NC3=O)cc2)nc1", "note": "(centres unmarked) [Pioglitazone, pioglitazone hydrochloride, reference compound]", "values": [
      {"measurement": "blood glucose decreasing rate (%) Day 3", "setting": "[6]; [13]", "result": 44, "unit": "%"},
      {"measurement": "blood glucose decreasing rate (%) Day of start of administration", "setting": "[6]; [13]", "result": 11, "unit": "%"}
    ]},
    {"smiles": "CC(C)[C@H]1CC[C@H](C(=O)N[C@H](Cc2ccccc2)C(=O)O)CC1", "note": "[Nateglinide, nateglinide, reference compound]", "values": [
      {"measurement": "blood glucose decreasing rate (%) 2 hours later", "setting": "[7]; nateglinide 30 mg/kg oral alone", "result": 5, "unit": "%"}
    ]},
    {"smiles": "CCCC(CCC)c1ccc(OCc2ccc(-c3ccc(COc4cncc(C(=O)O)c4)s3)cc2)cc1", "note": "[Example 4-5]", "values": [
      {"measurement": "blood glucose decreasing rate (%) 5 hours later", "setting": "[5]; test compound 5 mg/kg + tolbutamide 30 mg/kg oral", "result": 30, "unit": "%"},
      {"measurement": "blood glucose decreasing rate (%) 5 hours later", "setting": "[5]; [14]", "result": 26, "unit": "%"},
      {"measurement": "blood glucose decreasing rate (%) 2 hours later", "setting": "[7]; test compound 5 mg/kg + nateglinide 30 mg/kg oral", "result": 19, "unit": "%"},
      {"measurement": "blood glucose decreasing rate (%) 2 hours later", "setting": "[7]; [14]", "result": 11, "unit": "%"},
      {"measurement": "blood glucose decreasing rate (%) Day 3", "setting": "[6]; [15]", "result": 48, "unit": "%"},
      {"measurement": "blood glucose decreasing rate (%) Day of start of administration", "setting": "[6]; [15]", "result": 30, "unit": "%"},
      {"measurement": "blood glucose decreasing rate (%) Day 3", "setting": "[6]; [16]", "result": 32, "unit": "%"},
      {"measurement": "blood glucose decreasing rate (%) Day of start of administration", "setting": "[6]; [16]", "result": 24, "unit": "%"},
      {"measurement": "melting point", "result": "153 to 155", "unit": "°C"}
    ]},
    {"smiles": "OCC(CO)N[C@H]1C[C@](O)(CO)[C@@H](O)[C@H](O)[C@H]1O", "note": "[Voglibose, voglibose, reference compound]", "values": [
      {"measurement": "blood glucose decreasing rate (%) 1 hour later", "setting": "[4]; voglibose 0.3 mg/kg oral alone", "result": 35, "unit": "%"},
      {"measurement": "blood glucose decreasing rate (%) 2 hours later", "setting": "[4]; voglibose 0.3 mg/kg oral alone", "result": 38, "unit": "%"}
    ]}
  ]
}
